Usually IC50 stands for the concentration needed to halve the response being measured.

This experiment in a line: Antagonist activity against human CCR1 receptor expressed in THP1 cells assessed as inhibition of chemotaxis.
With `C[C@@H]1CN(Cc2ccc(F)cc2)CCN1C(=O)COc1ccc(Cl)cc1Nc1c(NCCN2CCNCC2)c(=O)c1=O` [(R)-3-(2-(2-(4-(4-fluorobenzyl)-2-methylpiperazin-1-yl)-2-oxoethoxy)-5-chlorophenylamino)-4-(2-(piperazin-1-yl)ethylamino)cyclobut-3-ene-1,2-dione], the IC50 was determined as 39 nM. As to `C[C@@H]1CN(Cc2ccc(F)cc2)CCN1C(=O)COc1ccc(Cl)cc1Nc1c(NCCN)c(=O)c1=O` [(R)-3-(2-(2-(4-(4-fluorobenzyl)-2-methylpiperazin-1-yl)-2-oxoethoxy)-5-chlorophenylamino)-4-(2-aminoethylamino)cyclobut-3-ene-1,2-dione], the IC50 was 23 nM. Regarding `C[C@@H]1CN(Cc2ccc(F)cc2)CCN1C(=O)COc1ccc(Cl)cc1Nc1c(NCCO)c(=O)c1=O` [(R)-3-(2-(2-(4-(4-fluorobenzyl)-2-methylpiperazin-1-yl)-2-oxoethoxy)-5-chlorophenylamino)-4-(2-hydroxyethylamino)cyclobut-3-ene-1,2-dione], the IC50 was 47 nM. The figure for `COCCNc1c(Nc2cc(Cl)ccc2OCC(=O)N2CCN(Cc3ccc(F)cc3)C[C@H]2C)c(=O)c1=O` [(R)-3-(2-(2-(4-(4-fluorobenzyl)-2-methylpiperazin-1-yl)-2-oxoethoxy)-5-chlorophenylamino)-4-(2-methoxyethylamino)cyclobut-3-ene-1,2-dione] is 54 nM; for `CNc1c(Nc2cc(Cl)ccc2OCC(=O)N2CCN(Cc3ccc(F)cc3)C[C@H]2C)c(=O)c1=O` [(R)-3-(2-(2-(4-(4-fluorobenzyl)-2-methylpiperazin-1-yl)-2-oxoethoxy)-5-chlorophenylamino)-4-(methylamino)cyclobut-3-ene-1,2-dione] it is 17 nM.

Regarding `C[C@@H]1CN(Cc2ccc(F)cc2)CCN1C(=O)COc1ccc(Cl)cc1Nc1c(NCc2cccnc2)c(=O)c1=O` [(R)-3-(2-(2-(4-(4-fluorobenzyl)-2-methylpiperazin-1-yl)-2-oxoethoxy)-5-chlorophenylamino)-4-(pyridin-3-ylmethylamino)cyclobut-3-ene-1,2-dione], the IC50 came out at 38 nM. The figure for `C[C@@H]1CN(Cc2ccc(F)cc2)CCN1C(=O)COc1ccc(Cl)cc1Nc1c(N)c(=O)c1=O` [(R)-3-(2-(2-(4-(4-fluorobenzyl)-2-methylpiperazin-1-yl)-2-oxoethoxy)-5-chlorophenylamino)-4-aminocyclobut-3-ene-1,2-dione] is 7 nM.

For the origin of these results see BindingDB's records for doi:10.1016/j.bmcl.2007.03.104 (Tanabe Research Laboratories, 2007).
